The test system of one assay is K562 cells. In words: Transfection of K562 suspension cells with CAT plasmid, CAT assay. The format is cell-based, human. The following applies: 3 h incubation, medium with serum. The protocol:
(§1) 5 μg of plasmid DNA and 11 μg (11 μl) of pure diC14-amidine suspension (for 25 μg (25 μl) of diC14-amidine/PE suspension (see example 2)) are separately diluted in a final volume of 50 μl with distilled water and sterilized. Both solutions are then mixed and incubated for 15 min at room temperature.
The suspension containing the complex (diC14-amidine-DNA or diC14-amidine/PE-DNA) is gently mixed with 10 ml of medium. The mixture thus formed constitutes the “transfection medium”. Aliquots of 10^6 cells are centrifuged and the pellets are resuspended in the transfection medium. The cell suspensions are distributed into 100 mm culture dishes. The suspensions are incubated for the desired period; after incubation, the cells are centrifuged and resuspended in 10 ml of fresh medium and then cultured normally.
(§2) CHO (Chinese Hamster Ovary) cells are cultured in F12 medium supplemented with 1% glutamine and 1% penicillin/streptomycin and containing 10% FCS (Fetal Calf Serum, K562 (human myeloid) cells are cultured in RFMI medium supplemented with antibiotics and non-essential amino acids and containing 10% FCS (0.5-1×10^6 cells/ml). Both cell lines are cultured under a CO2 atmosphere (37° C., 5% CO2).
(§3) The plasmid used is derived from the commercial plasmid pCMV5 into which the bacterial replication origin S1, the ampicillin resistance gene and the CAT gene of bacterial origin have been inserted. It is approximately 5000 base pairs in size and is stored at a concentration of 1 mg/ml.
[…] The CHO cells (adherent) are plated in the 6-well culture dishes the day before the experiment in an amount of 10^6 cells/well; while the K562 cells (in suspension) are used in an amount of 10^6 cells per experiment.
(§4) The incubation was carried out for 3 h for the two cell lines. The transfection medium is the normal culture medium (with serum) with which vesicle vector (pure diC14-amidine or diC14-amidine/PE/DNA) has been mixed under the conditions described in the general procedure.
After incubation, the cells are treated as described above; the CHO cells are transferred after 6 h into 100 mm culture dishes. The two cell lines continue to grow for 36 h before the CAT assay performed as described by Gorman et al., B.H. (1982), Mol. Cell. Biol. 2, 1044-1051; in brief, the cell lysates are incubated at 37° C. with [^14C]chloramphenicol and acetyl CoA for 2 h and extracted with ethyl acetate. […] The acetylation of chloramphenicol is determined by autoradiography on the chromatograms and counting of the spots on the plate.
(§5) Table 5 below gives the comparison of the transfection efficiency of the CAT gene for diC14 and the product DOTAP® marketed by Boehringer Mannheim, expressed as percentage of acetylated chloramphenicol in the cellular extract, under identical experimental conditions.

A further assay concerns CHO cells. Description: Transfection of adherent CHO cells with CAT plasmid, CAT assay. The format is cell-based, Chinese Hamster. To be noted: for transfection efficiency of the CAT gene, percentage of acetylated chloramphenicol in the cellular extract: adherent cells (CHO), 3 h incubation, medium with serum. The protocol:
as §1
The cells are cultured in 6-well culture dishes until they are 80-90% confluent.
The suspension containing the complex (diC14-amidine-DNA or diC14-amidine/PE-DNA) is gently mixed with 2 ml of culture medium. The culture medium used for the transfection operation is identical to the usual culture medium for the cells to be transformed. The medium is prepared with 2.5% or without serum.
The mixture thus formed constitutes the “transfection medium”. The cells (about 10^6) are washed with the culture medium and the transfection medium is added. The medium is incubated for the desired period. This period may depend on the cell line to be transfected but an incubation time of 2-3 h is generally used. After incubation, the transfection medium is replaced with fresh medium; 6 hours later, the cells can be […] into 100 mm culture dishes.
as §2, §3
The general procedure described above was followed; 5 μg (5 μl) of plasmid DNA and 11 μg (11 μl) of pure diC14-amidine suspension (or 25 μg (25 μl) of diC14-amidine/PE suspension) prepared as described above are used. The CHO cells (adherent) are plated in the 6-well culture dishes the day before the experiment in an amount of 10^6 cells/well; while the K562 cells (in suspension) are used in an amount of 10^6 cells per experiment.
as §4
After incubation, the cells are treated as described above; the CHO cells are transferred after 6 h into 100 mm culture dishes. The two cell lines continue to grow for 36 h before the CAT assay performed as described by Gorman et al., B.H. (1982), Mol. Cell. Biol. 2, 1044-1051; in brief, the cell lysates are incubated at 37° C. with [^14C]chloramphenicol and acetyl CoA for 2 h and extracted with ethyl acetate. The organic phase is eluted by TLC (thin-layer chromatography) with chloroform/methanol 95:5. The acetylation of chloramphenicol is determined by autoradiography on the chromatograms and counting of the spots on the plate.
as §5

[1] abbreviates: vector composition 2 + 5 (μg) plasmid DNA + cationic vesicles.
Setting [2] is: vector composition 5 + 10 (μg) plasmid DNA + cationic vesicles.

The structures appear in SMILES notation.

Take `CCCCCCCC/C=C\CCCCCCCC(=O)OCC(C[N+](C)(C)C)OC(=O)CCCCCCC/C=C\CCCCCCCC.COS(=O)(=O)[O-]` (stereo not drawn) [DOTAP, N-(2,3-dioleoyloxy)propyl-N,N,N-trimethylammonium methyl sulfate, reference compound]: the “transfection efficiency of the CAT gene, percentage of acetylated chloramphenicol in the cellular extract” value is recorded as 29% in the assay with K562 cells (setting [1]), 36% with K562 cells (setting [2]), 32% in the assay with CHO cells (setting [1]) and 40% with CHO cells (setting [2]).
As to `CCCCCCCCCCCCCCN=C(CCNCCCCCCCCCCCCCC)NC(C)(C)C` [diC14-t-but, 3-tetradecylamino-N-tert-butyl-N′-tetradecylpropionamidine], the “transfection efficiency of the CAT gene, percentage of acetylated chloramphenicol in the cellular extract” value in the assay with K562 cells (setting [1]) worked out at 60%; in the assay with K562 cells (setting [2]), 68%; with CHO cells (setting [1]), 63%; in the assay with CHO cells (setting [2]), 65%. The “quantities needed for transfection efficiencies relative to available commercial products” value with CHO cells (compared with DOTAP (Boehringer Mannheim) and Lipofectin (Gibco BRL), CHO and K562 cells) is reported as “two to three times lower”.

(Values after patent US6613351B1, “Compound capable of introducing at least one molecule into a cell” (Biotech Tools S.A., priority 1993, dated 2003).)
